# According to US20090068290A1, “BIFEPRUNOX DOSES FOR TREATING SCHIZOPHRENIA” (priority 2006, published 2009):
# How the values were obtained:
# [1] = Food effect on bifeprunox PK (standard high-fat meal)
# From the text: The objective of this study is to assess the pharmacokinetics (PK) of bifeprunox. The PK of bifeprunox in healthy subjects were investigated based on a pooled analysis of PK parameters from 21 clinical pharmacology studies. The pooled analysis included PK profiles after single and multiple doses to 132 and 399 subjects, respectively, and explored the potential effects of age, gender, body weight, and race. In addition, PK in patients with schizophrenia were investigated using a population PK approach based on samples from 376 patients in phase II studies and 434 patients in phase III studies.
# [2] = Metabolic syndrome status, Clinical Study Four; type: in vivo, human; details: 6 months
# Description: (§1) METHODOLOGY: This study was a multinational, multicenter, randomized, double-blind, parallel-group, placebo-controlled, fixed-dose study. The study consisted of a 3- to 6-day antipsychotic-free run-in period, after which patients were randomised to 6 months of double-blind treatment with fixed doses of bifeprunox (20 mg/day (BX20) or 30 mg/day (BX30)) or placebo (PBO). Patients allocated to the BX groups were up-titrated from 0.25 mg/day over 7 days (BX20) or 8 days (BX30), and then continued on these doses for the remainder of the study. […] At predetermined time points, blood samples were obtained for drug concentration analysis of BX and its major metabolites (3′- and 4′-sulfate conjugates of BX), and pharmaco-economic assessments were performed.
# [3] = system: patients with chronic schizophrenia; assay: Movement rating scales SAS, BAS, AIMS, Clinical Study Four; type: in vivo, human; details: for AIMS total score at Month 6: APTS; for proportion of patients normal with respect to SAS status: Month 6
# Description: as §1
# The SAS is used to measure Parkinsonian-type symptoms in patients exposed to antipsychotics. The scale consists of 10 items, each rated on a 5-point scale ranging from 0 (complete absence of the condition) to 4 (presence of the condition in extreme form). The SAS total score is defined as the sum of all item scores, and the range is 0 to 40. A SAS total score of up to 3 is considered normal.
# The BAS is used to rate observable, restless movements of drug-induced akathisia as well as the subjective awareness of restlessness and any distress associated with the akathisia. The scale consists of 3 items that is rated from 0 (no evidence of akathisia) to 3 (severe akathisia). The BAS total score is defined as the sum of the these three BAS item scores and ranges from is 0 to 9. In addition, a global clinical assessment of akathisia is rated from 0 (no evidence of akathisia) to 5 (severe akathisia).
# The AIMS, designed to record the occurrence of dyskinetic movements, consists of 12 items. Items 1 to 7 measure specific involuntary movements on a scale from 0 (none) to 4 (severe). Items 8 to 10 measure global assessment of abnormal movement on a scale from 0 (no awareness) to 4 (aware, severe distress). Items 11 and 12 are questions regarding the dental condition of the patient, with yes/no answers. The total score is calculated by summing AIMS items 1 through 10 and ranges from 0 to 40; the non-global total score is calculated by summing items 1 through 7.
smiles,measurement,setting,value
"O=c1[nH]c2cccc(N3CCN(Cc4cccc(-c5ccccc5)c4)CC3)c2o1 [Bifeprunox, 7-[4-([1,1′-biphenyl]-3-ylmethyl)-1-piperazinyl]-2(3H)-benzoxazolone]",increase in AUC with a standard high-fat meal,[1]; 40 mg dose,29%
same,increase in Cmax with a standard high-fat meal,[1]; 40 mg dose,10%
same,Tmax,"[1]; human, plasma, oral, 40 mg",1.5 h
same,effect on patients' status of metabolic syndrome,[2]; BX either dose (20 or 30 mg/day),no treatment effect
same,"metabolic profile (weight changes, blood lipids, metabolic syndrome)",[2]; bifeprunox 20 or 30 mg/day,A favorable metabolic profile
same,"AIMS score, mean (SD)","[3]; BX20, Baseline, LOCF",1.04 (2.76)
same,"BAS score, mean (SD)","[3]; BX20, Baseline, LOCF",0.44 (1.10)
same,"SAS score, mean (SD)","[3]; BX20, Baseline, LOCF",2.27 (3.72)
same,"AIMS score, mean (SD)","[3]; BX20, Baseline, OC",1.04 (2.76)
same,"BAS score, mean (SD)","[3]; BX20, Baseline, OC",0.46 (1.10)
same,"SAS score, mean (SD)","[3]; BX20, Baseline, OC",2.27 (3.72)
same,"AIMS score, mean (SD)","[3]; BX20, Month 6, LOCF",1.55 (3.92)
same,"BAS score, mean (SD)","[3]; BX20, Month 6, LOCF",0.49 (1.25)
same,"SAS score, mean (SD)","[3]; BX20, Month 6, LOCF",1.22 (2.47)
same,"AIMS score, mean (SD)","[3]; BX20, Month 6, OC",1.08 (2.13)
same,"BAS score, mean (SD)","[3]; BX20, Month 6, OC",0.17 (0.42)
same,"SAS score, mean (SD)","[3]; BX20, Month 6, OC",0.97 (2.20)
same,"AIMS score, mean (SD)","[3]; BX20, Week 6, LOCF",1.59 (3.96)
same,"BAS score, mean (SD)","[3]; BX20, Week 6, LOCF",0.49 (1.21)
same,"SAS score, mean (SD)","[3]; BX20, Week 6, LOCF",1.43 (2.77)
same,"AIMS score, mean (SD)","[3]; BX20, Week 6, OC",1.16 (2.55)
same,"BAS score, mean (SD)","[3]; BX20, Week 6, OC",0.36 (0.99)
same,"SAS score, mean (SD)","[3]; BX20, Week 6, OC",1.31 (2.69)
same,AIMS total score at Month 6,"[3]; BX20, OC",1.08
same,proportion of patients normal with respect to SAS status,[3]; BX20,89%
same,"AIMS score, mean (SD)","[3]; BX30, Baseline, LOCF",1.35 (2.79)
same,"BAS score, mean (SD)","[3]; BX30, Baseline, LOCF",0.45 (1.11)
same,"SAS score, mean (SD)","[3]; BX30, Baseline, LOCF",2.33 (3.53)
same,"AIMS score, mean (SD)","[3]; BX30, Baseline, OC",1.35 (2.79)
same,"SAS score, mean (SD)","[3]; BX30, Baseline, OC",2.33 (3.53)
same,"AIMS score, mean (SD)","[3]; BX30, Month 6, LOCF",2.77 (6.09)
same,"SAS score, mean (SD)","[3]; BX30, Month 6, LOCF",2.09 (3.64)
same,"AIMS score, mean (SD)","[3]; BX30, Month 6, OC",0.86 (3.18)
same,"BAS score, mean (SD)","[3]; BX30, Month 6, OC",0.16 (0.65)
same,"SAS score, mean (SD)","[3]; BX30, Month 6, OC",1.16 (2.78)
same,"AIMS score, mean (SD)","[3]; BX30, Week 6, LOCF",2.83 (6.09)
same,"BAS score, mean (SD)","[3]; BX30, Week 6, LOCF",0.66 (1.55)
same,"SAS score, mean (SD)","[3]; BX30, Week 6, LOCF",2.35 (3.87)
same,"AIMS score, mean (SD)","[3]; BX30, Week 6, OC",1.80 (4.25)
same,"SAS score, mean (SD)","[3]; BX30, Week 6, OC",2.06 (3.41)
same,AIMS total score at Month 6,"[3]; BX30, OC",0.86
same,proportion of patients normal with respect to SAS status,[3]; BX30,78%
